# “Also recorded” adds a separate entry of the source.
# Tested on: pregnant rats
# Assay: Time of delivery of timed-pregnant rats (hours after 8 a.m. of day 22 of gestation)
# Format: in vivo, Sprague-Dawley rats
# Settings: for delay of delivery compared to vehicle control: from day 13
# Description: Nonpregnant and timed-pregnant Sprague-Dawley rats (200-250 g) from Charles-River Laboratories (Wilmington, Mass., USA) were delivered to animal care facilities on day 12 of gestation (day 1 being the day when a sperm plug was observed). The animals were housed separately, with free access to food and water and maintained on a constant 12-hour light-dark cycle. Control pregnant rats were spontaneously delivering on day 22 and 23 of gestation. For the measurements with the collascope the animals were anaesthetized (interperitoneal (i.p). injection) with a combination of xylazine (Gemini, Burns Veterinary Supply Inc, Rockville Center, N.Y., USA) and ketamine HCl (Ketaset; Fort Dodge Laboratories Inc, Fort Dodge, Iowa, USA). The animals were randomly allocated to one of the groups and sacrificed by carbon dioxide inhalation on day 3, 5, 7 and 10 postpartum or on day 25 of pregnancy in the groups with delayed delivery. All procedures were approved by the Animal Care and Use Committee of the St. Joseph's Hospital and Medical Center in Phoenix.
# Prior to any treatment LIF measurements were made in control rats throughout pregnancy and postpartum to estimate the LIF profile during gestation (see FIG. 1). Pregnant rats (N=6/group) were treated (see FIG. 2), when not otherwise mentioned (see FIG. 3), from day 13 of pregnancy until delivery. Single daily treatments were performed at 8 a.m. and twice a day treatments at 8 a.m. and 8 p.m. All single injections (4 mg P4, 10 mg 17P, 2 mg promegestone (R5020)) were by the subcutaneous route (s.c.) in sesame oil (0.2 ml), which was also used for the controls. Vaginal gels were applied twice a day with a blunt ball-top needle deep into the vagina. Crinone was used for the P4 vaginal group (equivalent volumes of Crinone were used for 2-15 mg P4/treatment), all data presented show the results of the highest dose (total daily dose of 30 mg P4=⅓ of a applicator of 8% Crinone that contains 90 mg P4). For the vaginal promegestone (R5020) group micronized promegestone (R5020) (1 mg/treatment) was mixed into 0.18 ml of Replens. The control rats for the vaginal groups were treated with Replens (0.18 ml/treatment). For oral P4 treatments (15 mg, bid, vehicle sesame oil or H2O, volume 1 ml) gavage was used. For topical P4 treatment (15 mg, bid, P4 in 1 ml sesame oil, fish oil or in Replens) the drug was applied on the back of animals that were shaved on day 13, 17 and 21. In some animals (N=6) RU-486 (3 mg in 0.2 ml sesame oil) was injected subcutaneously once on day 16 of gestation.
# Times of delivery (see also FIG. 4) of controls and various treatment groups were determined as hours after 8 a.m. of day 22 of gestation (FIG. 5). The expulsion of one pup was defined as delivery.
# The cervical LIFs obtained at different times of gestation (FIG. 1) were compared using one-way analysis of variance (ANOVA) and multiple pairwise comparison procedures (Holm-Sidak). Student's t-test was used to compare the LIF results of a treatment group to its specific control group at any time in gestation and postpartum and also to determine the differences in delivery times (FIGS. 2, 3 and 5). A two-tailed probability value of P<0.05 was considered statistically significant.
# FIG. 15 depicts delay of delivery times in timed pregnant rats treated with progesterone (P4) with different routes and vehicles. Treatment was started on day 13 of gestation and continued until delivery of pups or until delivery was blocked at […] (day 25) past day 22 of gestation. 8 am on day 22 is noted as hour 0 and delay is compared to control group treated only with vehicle. Treatment groups included: P4 in fish oil (vaginal, nasal, injection and topical groups), P4 in cocoa butter (rectal) and P4 in sesame oil (oral). All treatment groups received a total daily dose of 30 mg P4/day except the nasal and subcutaneous injection group which received 1 mg/day and 4 mg/day, respectively. […]
smiles,measurement,setting,value
"CC(=O)[C@H]1CC[C@H]2[C@@H]3CCC4=CC(=O)CC[C@]4(C)[C@H]3CC[C@]12C [P4, progesterone]",delay of delivery compared to controls,P4 30 mg/day in DHA (docosahexanoic acid) from day 20,significant delays when compared to controls
same,delay of delivery compared to controls,P4 30 mg/day in EPA (eicosapentanoic acid) from day 20,All treatment groups except EPA had significant delays
same,delay of delivery compared to controls,P4 30 mg/day in GNC Triple Strength fish oil from day 20,significant delays when compared to controls
same,delay of delivery compared to controls,P4 30 mg/day in Neptune Krill Oil from day 20,significant delays when compared to controls
same,delay of delivery compared to controls,P4 30 mg/day in Nutrasea fish oil from day 20,significant delays when compared to controls
same,delay of delivery compared to controls,P4 30 mg/day in Nutrasea+D fish oil from day 20,significant delays when compared to controls
same,delay of delivery compared to controls,P4 30 mg/day in Omegasorb GNC fish oil from day 20,complete block of delivery
same,delay of delivery,"P4 in fish oil, s.c. or topical, all groups begun on days 19, 20, 21 or 22",significant delay of delivery
same,block of delivery,"P4 in fish oil, subcutaneous injection begun on day 21",complete block in all animals
same,block of delivery,"P4 in fish oil, topical application begun on day 19",complete block in all animals
same,delivery,"P4 in fish oil, treatment begun just prior to delivery on day 22",blocked or significantly delayed
same,effect on delivery,oral P4 15 mg bid by gavage in sesame oil or H2O from day 13,Delivery was not changed; also recorded: no effect on time of delivery
same,delay of delivery compared to vehicle control,"rectal P4 in cocoa butter, 30 mg P4/day",significant delay of delivery
same,effect on delivery,"s.c. injection daily in sesame oil from day 13 (P4 4 mg, 17P 10 mg, R5020 2 mg)",inhibits delivery; also recorded: completely blocked delivery; also recorded: prevented delivery; also recorded: completely inhibited; also recorded: delivery is inhibited
same,delay of delivery compared to vehicle control,"subcutaneous injection of P4 in fish oil, 4 mg/day",significant delay of delivery
same,delay of delivery,topical P4 15 mg bid in Omegasorb fish oil from day 19,significant delay of delivery
same,effect on delivery,topical P4 15 mg bid in Replens from day 13,Delivery was not changed; also recorded: not at all
same,delay of delivery,topical P4 15 mg bid in coconut oil from day 19,significant delay of delivery
same,delay of delivery,topical P4 15 mg bid in corn oil from day 19,All groups but corn oil had significant delay of delivery
same,effect on delivery,topical P4 15 mg bid in fish oil from day 13,inhibits delivery; also recorded: completely
same,delay of delivery,topical P4 15 mg bid in olive oil from day 19,significant delay of delivery
same,effect on delivery,topical P4 15 mg bid in sesame oil from day 13,inhibits delivery; also recorded: only partially
same,delay of delivery compared to vehicle control,"topical P4 in fish oil, 30 mg P4/day",significant delay of delivery
same,effect on delivery,vaginal bid from day 13 (P4 15 mg as Crinone; R5020 1 mg in Replens),Delivery was not changed; also recorded: failed to inhibit delivery; also recorded: no effect on cervical ripening and on delivery; also recorded: no significant effect on delaying term delivery

# From patent US10449183B2, “Methods for inhibiting preterm labor and uterine contractility disorders and preventing cervical ripening” (DIGNITY HEALTH, priority 2010, dated 2019)
